Experiment [1] concerns the target human adenosine A2B receptor (Homo sapiens (Human), UniProt P29275). Kind of experiment: Adenosine A2B Receptor Cyclic AMP GS Assay. It counts as cell-based. Particulars: HEK-293 cells, agonist NECA at 12 nM, cAMP accumulation; read-out: A2B—cAMP_EC50. How it is done:
Stably transfected HEK-293 cells expressing the human adenosine A2B receptor (Perkin Elmer) were maintained in MEM culture medium with 10% FBS and 100 μg/mL Geneticin (Life Technologies). 18 to 24 hours prior to assay, geneticin was removed from culture. The cisbio cAMP-GS Dynamic kit utilizing the FRET (Fluorescence Resonance Energy Transfer) technology was used to measure cAMP accumulation in the cells. Compounds of the present disclosure at an appropriate concentration were mixed with 10000 cells/well in white 96 well half area plates (Perkin Elmer) for 30 min at room temperature gently shaking. Agonist, NECA (R&D Technologies) at 12 nM was added to each well for 60 min at room temperature gently shaking. Detection reagents, d2-labeled cAMP (acceptor) and anti-cAMP cryptate (donor) were added to each well for 60 min at RT gently shaking. Plates were read on Pherastar (BMG Labtech), fluorescence ratio 665/620 was calculated and EC50 determination was performed by fitting the curve of percent of control versus the log of the compound concentration using GraphPad Prism.

Experiment [2] concerns the target Adenosine A2A receptor (Tag-lite Adenosine A2A labeled cells) (Homo sapiens (Human), UniProt P29274). Kind of experiment: A2A Tag-lite HTRF Assay. The format is binding. Particulars: displacement of Adenosine A2A Receptor Red antagonist fluorescent ligand, 12.5 nM. The text has this:
The final concentration of DMSO was 1%.

Adenosine A2A receptor (Tag-lite Adenosine A2A labeled cells), sequence (P29274 whole entry): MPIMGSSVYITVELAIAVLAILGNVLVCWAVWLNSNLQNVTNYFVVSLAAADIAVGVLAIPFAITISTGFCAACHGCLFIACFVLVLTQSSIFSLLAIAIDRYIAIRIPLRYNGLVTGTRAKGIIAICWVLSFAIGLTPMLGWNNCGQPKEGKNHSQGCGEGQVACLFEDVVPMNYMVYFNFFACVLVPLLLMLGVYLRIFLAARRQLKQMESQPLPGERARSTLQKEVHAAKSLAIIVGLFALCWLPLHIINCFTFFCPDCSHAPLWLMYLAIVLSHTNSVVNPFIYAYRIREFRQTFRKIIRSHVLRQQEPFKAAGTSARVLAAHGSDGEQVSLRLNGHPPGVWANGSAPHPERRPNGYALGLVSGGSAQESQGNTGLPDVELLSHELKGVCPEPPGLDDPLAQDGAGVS
human adenosine A2B receptor, sequence (P29275 whole entry): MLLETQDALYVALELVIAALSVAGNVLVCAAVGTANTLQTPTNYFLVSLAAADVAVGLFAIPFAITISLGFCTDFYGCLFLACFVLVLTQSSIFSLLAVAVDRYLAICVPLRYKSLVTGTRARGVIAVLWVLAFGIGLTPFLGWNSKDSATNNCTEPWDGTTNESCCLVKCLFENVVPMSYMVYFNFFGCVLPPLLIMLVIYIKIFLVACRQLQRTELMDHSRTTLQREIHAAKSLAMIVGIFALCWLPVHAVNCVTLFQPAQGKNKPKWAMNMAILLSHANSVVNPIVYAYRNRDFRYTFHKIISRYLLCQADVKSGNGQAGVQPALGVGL

Take `CC(C)n1nccc1-c1c(-c2cccc(C#N)c2F)nc(N)c2nn(Cc3ccccn3)nc12` [Example 40, 3-(4-amino-7-(1-isopropyl-1H-pyrazol-5-yl)-2-(pyridin-2-ylmethyl)-2H-[1,2,3]triazolo[4,5-c]pyridin-6-yl)-2-fluorobenzonitrile]: in experiment [1], the EC50 is not above 10 nM. Moreover, the inhibition constant Ki in experiment [2] is not above 10 nM.

Consider `Cc1ncoc1-c1c(-c2cccc(C#N)c2)nc(N)c2nn(Cc3ccccn3)nc12` [Example 17, 3-(4-amino-7-(4-methyloxazol-5-yl)-2-(pyridin-2-ylmethyl)-2H-[1,2,3]triazolo[4,5-c]pyridin-6-yl)benzonitrile], for which, in experiment [1], the EC50 is not above 10 nM. This compound also showed an inhibition constant (Ki) in experiment [2] not above 10 nM.

For the compound `Cn1ccc(Cn2cc3c(N)nc(-c4cccc(C#N)c4)c(-c4ccncn4)c3n2)n1` [Example 4, 3-(4-amino-2-((1-methyl-1H-pyrazol-3-yl)methyl)-7-(pyrimidin-4-yl)-2H-pyrazolo[4,3-c]pyridin-6-yl)benzonitrile], the EC50 in experiment [1] was 10 to 100 nM. For the same compound, the inhibition constant (Ki) in experiment [2] is not above 10 nM.

Regarding `CCn1nccc1-c1c(-c2cccc(C#N)c2)nc(N)c2nn(Cc3ccccn3)nc12` [Example 18, 3-(4-amino-7-(1-ethyl-1H-pyrazol-5-yl)-2-(pyridin-2-ylmethyl)-2H-[1,2,3]triazolo[4,5-c]pyridin-6-yl)benzonitrile], in experiment [1], the EC50 was not above 10 nM. The compound also registered an inhibition constant Ki in experiment [2] not above 10 nM.

As to `N#Cc1cccc(-c2nc(N)c3cn(Cc4ccccn4)nc3c2-c2ccncc2)c1` [Example 6, 3-(4-amino-2-(pyridin-2-ylmethyl)-7-(pyridin-4-yl)-2H-pyrazolo[4,3-c]pyridin-6-yl)benzonitrile], the EC50 in experiment [1] was not above 10 nM. This compound also yielded an inhibition constant (Ki) in experiment [2] not above 10 nM.

Turning to `Cc1ncoc1-c1c(-c2cccc(C#N)c2)nc(N)c2nn(Cc3ccn(C)n3)nc12` [Example 45, 3-(4-amino-2-((1-methyl-1H-pyrazol-3-yl)methyl)-7-(4-methyloxazol-5-yl)-2H-[1,2,3]triazolo[4,5-c]pyridin-6-yl)benzonitrile], the EC50 in experiment [1] is not above 10 nM. For the same compound, the inhibition constant Ki in experiment [2] was not above 10 nM.

Take `Cc1ncoc1-c1c(-c2cccc(C#N)c2)nc(N)c2nn(C(C)c3ccccn3)nc12` (stereo not drawn) [Example 46, 3-(4-amino-7-(4-methyloxazol-5-yl)-2-(1-(pyridin-2-yl)ethyl)-2H-[1,2,3]triazolo[4,5-c]pyridin-6-yl)benzonitrile]: in experiment [1], the EC50 is not above 10 nM. Further, in experiment [2], the inhibition constant Ki is not above 10 nM.

With `Cc1cccc(Cn2nc3c(N)nc(-c4cccc(C#N)c4)c(-c4ccncn4)c3n2)n1` [Example 24, 3-(4-amino-2-((6-methylpyridin-2-yl)methyl)-7-(pyrimidin-4-yl)-2H-[1,2,3]triazolo[4,5-c]pyridin-6-yl)benzonitrile], the EC50 in experiment [1] is not above 10 nM. Further, the inhibition constant Ki in experiment [2] was not above 10 nM.

For `N#Cc1cccc(-c2nc(N)c3cn(Cc4ccccn4)nc3c2-c2ccncn2)c1` [Example 1, 3-(4-amino-2-(pyridin-2-ylmethyl)-7-(pyrimidin-4-yl)-2H-pyrazolo[4,3-c]pyridin-6-yl)benzonitrile], the EC50 in experiment [1] lay in the range of 10 to 100 nM. For the same compound, the inhibition constant (Ki) in experiment [2] is not above 10 nM.

As to `N#Cc1cccc(-c2nc(N)c3nn(Cc4ccccn4)nc3c2-c2ccc3nccnc3c2)c1F` [Example 43, 3-(4-amino-2-(pyridin-2-ylmethyl)-7-(quinoxalin-6-yl)-2H-[1,2,3]triazolo[4,5-c]pyridin-6-yl)-2-fluorobenzonitrile], the EC50 in experiment [1] is 100 to 1000 nM. For the same compound, the Ki in experiment [2] is not above 10 nM.

Consider `Cc1cccc(Cn2nc3c(N)nc(-c4cccc(C#N)c4)c(-c4ccncc4C)c3n2)n1` [Example 26, 3-(4-amino-2-((6-methylpyridin-2-yl)methyl)-7-(3-methylpyridin-4-yl)-2H-[1,2,3]triazolo[4,5-c]pyridin-6-yl)benzonitrile], for which, in experiment [1], the EC50 is not above 10 nM. The compound further yielded an inhibition constant Ki in experiment [2] not above 10 nM.

Regarding `N#Cc1cccc(-c2nc(N)c3nn(Cc4ncccc4F)nc3c2-c2ccncc2)c1` [Example 31, 3-(4-amino-2-((3-fluoropyridin-2-yl)methyl)-7-(pyridin-4-yl)-2H-[1,2,3]triazolo[4,5-c]pyridin-6-yl)benzonitrile], the EC50 in experiment [1] is not above 10 nM. The compound also yielded an inhibition constant Ki in experiment [2] not above 10 nM.

Regarding `Cn1cc(-c2c(-c3cccc(C#N)c3)nc(N)c3nn(Cc4ncccc4F)nc23)ccc1=O` [Example 32, 3-(4-amino-2-((3-fluoropyridin-2-yl)methyl)-7-(1-methyl-6-oxo-1,6-dihydropyridin-3-yl)-2H-[1,2,3]triazolo[4,5-c]pyridin-6-yl)benzonitrile], the EC50 in experiment [1] was in the range of 10 to 100 nM. In experiment [2], the inhibition constant Ki was not above 10 nM.

`Cc1cnccc1-c1c(-c2cccc(C#N)c2)nc(N)c2nn(Cc3ccccn3)nc12` [Example 19, 3-(4-amino-7-(3-methylpyridin-4-yl)-2-(pyridin-2-ylmethyl)-2H-[1,2,3]triazolo[4,5-c]pyridin-6-yl)benzonitrile]: in experiment [1], the EC50 is not above 10 nM. Moreover, the inhibition constant (Ki) in experiment [2] was not above 10 nM.

In the case of `N#Cc1cccc(-c2nc(N)c3nn(Cc4ncccc4F)nc3c2-c2ccncn2)c1` [Example 30, 3-(4-amino-2-((3-fluoropyridin-2-yl)methyl)-7-(pyrimidin-4-yl)-2H-[1,2,3]triazolo[4,5-c]pyridin-6-yl)benzonitrile], the EC50 in experiment [1] is not above 10 nM. The inhibition constant (Ki) in experiment [2] was not above 10 nM.

As for `Cn1nccc1-c1c(-c2cccc(C#N)c2)nc(N)c2nn(Cc3ncccc3F)nc12` [Example 35, 3-(4-amino-2-((3-fluoropyridin-2-yl)methyl)-7-(1-methyl-1H-pyrazol-5-yl)-2H-[1,2,3]triazolo[4,5-c]pyridin-6-yl)benzonitrile], the EC50 in experiment [1] was not above 10 nM. The inhibitory constant (Ki) in experiment [2] is not above 10 nM.

As for `CCn1nccc1-c1c(-c2cccc(C#N)c2)nc(N)c2nn(Cc3cccc(C)n3)nc12` [Example 28, 3-(4-amino-7-(1-ethyl-1H-pyrazol-5-yl)-2-((6-methylpyridin-2-yl)methyl)-2H-[1,2,3]triazolo[4,5-c]pyridin-6-yl)benzonitrile], the EC50 in experiment [1] is not above 10 nM. This compound also yielded a Ki in experiment [2] not above 10 nM.

Regarding `Cc1ncoc1-c1c(-c2cccc(C#N)c2)nc(N)c2nn(Cc3ncccc3F)nc12` [Example 36, 3-(4-amino-2-((3-fluoropyridin-2-yl)methyl)-7-(4-methyloxazol-5-yl)-2H-[1,2,3]triazolo[4,5-c]pyridin-6-yl)benzonitrile], the EC50 in experiment [1] was not above 10 nM. The same compound showed an inhibition constant Ki in experiment [2] not above 10 nM.

Take `Cc1ncoc1-c1c(-c2cccc(C#N)c2F)nc(N)c2nn(CCc3ccccn3)nc12` [Example 49, 3-(4-amino-7-(4-methyloxazol-5-yl)-2-(2-(pyridin-2-yl)ethyl)-2H-[1,2,3]triazolo[4,5-c]pyridin-6-yl)-2-fluorobenzonitrile]: the EC50 in experiment [1] lay in the range of 10 to 100 nM. In experiment [2], the Ki is not above 10 nM.

For `CCn1nccc1-c1c(-c2cccc(C#N)c2)nc(N)c2nn(Cc3ncccc3F)nc12` [Example 33, 3-(4-amino-7-(1-ethyl-1H-pyrazol-5-yl)-2-((3-fluoropyridin-2-yl)methyl)-2H-[1,2,3]triazolo[4,5-c]pyridin-6-yl)benzonitrile], in experiment [1], the EC50 was not above 10 nM. Besides, in experiment [2], the Ki was not above 10 nM.

In the case of `N#Cc1cccc(-c2nc(N)c3nn(Cc4ncccc4F)nc3c2-c2ccc3nccnc3c2)c1` [Example 37, 3-(4-amino-2-((3-fluoropyridin-2-yl)methyl)-7-(quinoxalin-6-yl)-2H-[1,2,3]triazolo[4,5-c]pyridin-6-yl)benzonitrile], the EC50 in experiment [1] was in the range of 10 to 100 nM. The compound further registered an inhibition constant (Ki) in experiment [2] not above 10 nM.

In the case of `Cc1cccc(Cn2nc3c(N)nc(-c4cccc(C#N)c4)c(-c4ocnc4C)c3n2)n1` [Example 29, 3-(4-amino-7-(4-methyloxazol-5-yl)-2-((6-methylpyridin-2-yl)methyl)-2H-[1,2,3]triazolo[4,5-c]pyridin-6-yl)benzonitrile], the EC50 in experiment [1] is not above 10 nM. Also, the inhibitory constant (Ki) in experiment [2] is not above 10 nM.

Consider `N#Cc1cccc(-c2nc(N)c3nn(Cc4ccccn4)nc3c2-c2cnco2)c1` [Example 21, 3-(4-amino-7-(oxazol-5-yl)-2-(pyridin-2-ylmethyl)-2H-[1,2,3]triazolo[4,5-c]pyridin-6-yl)benzonitrile], for which, in experiment [1], the EC50 is not above 10 nM. In experiment [2], this compound came in with an inhibitory constant (Ki) not above 10 nM.

Consider `Cc1cccc(Cn2cc3c(-c4ocnc4C)c(-c4cccc(C#N)c4)nc(N)c3n2)n1` [Example 13], for which the EC50 in experiment [1] is 10 to 100 nM. Moreover, the Ki in experiment [2] was not above 10 nM.

As to `CCn1nccc1-c1c(-c2cccc(C#N)c2)nc(N)c2cn(Cc3ccccn3)nc12` [Example 2, 3-(4-amino-7-(1-ethyl-1H-pyrazol-5-yl)-2-(pyridin-2-ylmethyl)-2H-pyrazolo[4,3-c]pyridin-6-yl)benzonitrile], the EC50 in experiment [1] was not above 10 nM. Also, in experiment [2], the inhibitory constant (Ki) is not above 10 nM.

For `N#Cc1cccc(-c2nc(N)c3nn(Cc4ccccn4)nc3c2-c2ccc3nccnc3c2)c1` [Example 23, 3-(4-amino-2-(pyridin-2-ylmethyl)-7-(quinoxalin-6-yl)-2H-[1,2,3]triazolo[4,5-c]pyridin-6-yl)benzonitrile], in experiment [1], the EC50 fell in the range of 100 to 1000 nM. In addition, in experiment [2], the Ki was not above 10 nM.

Consider `Cn1nccc1-c1c(-c2cccc(C#N)c2F)nc(N)c2nn(Cc3ccccn3)nc12` [Example 39, 3-(4-amino-7-(1-methyl-1H-pyrazol-5-yl)-2-(pyridin-2-ylmethyl)-2H-[1,2,3]triazolo[4,5-c]pyridin-6-yl)-2-fluorobenzonitrile], for which, in experiment [1], the EC50 was not above 10 nM. The inhibitory constant (Ki) in experiment [2] was not above 10 nM.

For the origin of these results see US11390624B2, “Pyrazolopyridines and triazolopyridines as A2A / A2B inhibitors” (Incyte Corporation, priority 2019, dated 2022).
